{"source": "PubChem BioAssay AID1919000", "about": "(Molecular Pharmacology Branch, DTP, NCI, 2023)", "test_system": "653999-131-R-J2-PDC complex spheroids, growth % test/control", "assay": "Anticancer human tumor 653999-131-R-J2-PDC patient-derived lung adenocarcinoma cell line growth inhibition [AhR]", "details": "for IC50: curve of first compound; for viability, T/C: stronger effect = lower value", "procedure,_shortened": "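Complex tumor spheroids co-cultured with HUVEC and human MSC stroma; AhR antagonists tested in combination with standard-of-care and investigational agents. Top concentration at or near clinical Cmax (else 10 microM), half-log dilutions; growth expressed as percent test/control.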", "data": [{"compound": "CC(C)CC(NC(=O)C(Cc1ccccc1)NC(=O)c1cnccn1)B(O)O", "note": "(stereo not given) + Cc1cncc(-c2nc(NCCc3c[nH]c4ccccc34)c3ncn(C(C)C)c3n2)c1;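 note: spheroids exposed to agents for seven days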;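 for viability, T/C: 100% = DMSO vehicle control viability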", "values": [{"measurement": "IC50", "setting": "second compound 0.1 µM", "result": 0.0223, "unit": "µM"}, {"measurement": "IC50", "setting": "second compound 0.316 µM", "result": 0.0204, "unit": "µM"}, {"measurement": "IC50", "setting": "second compound 1 µM", "result": 0.0214, "unit": "µM"}, {"measurement": "IC50", "setting": "second compound 3.16 µM", "result": 0.0204, "unit": "µM"}, {"measurement": "IC50", "setting": "second compound 10 µM", "result": 0.00428, "unit": "µM"}, {"measurement": "viability, T/C", "setting": "second compound 0.1 µM, first compound 0.000949 µM", "result": 94.5, "unit": "%"}, {"measurement": "viability, T/C", "setting": "second compound 0.1 µM, first compound 0.003 µM", "result": 130, "unit": "%"}, {"measurement": "viability, T/C", "setting": "second compound 0.1 µM, first compound 0.00949 µM", "result": 103, "unit": "%"}, {"measurement": "viability, T/C", "setting": "second compound 0.1 µM, first compound 0.03 µM", "result": 29.3, "unit": "%"}, {"measurement": "viability, T/C", "setting": "second compound 0.1 µM, first compound 0.0949 µM", "result": 9.65, "unit": "%"}, {"measurement": "viability, T/C", "setting": "second compound 0.1 µM, first compound 0.3 µM", "result": 3.26, "unit": "%"}, {"measurement": "viability, T/C", "setting": "second compound 0.316 µM, first compound 0.000949 µM", "result": 108, "unit": "%"}, {"measurement": "viability, T/C", "setting": "second compound 0.316 µM, first compound 0.003 µM", "result": 108, "unit": "%"}, {"measurement": "viability, T/C", "setting": "second compound 0.316 µM, first compound 0.00949 µM", "result": 113, "unit": "%"}, {"measurement": "viability, T/C", "setting": "second compound 0.316 µM, first compound 0.03 µM", "result": 20, "unit": "%"}, {"measurement": "viability, T/C", "setting": "second compound 0.316 µM, first compound 0.0949 µM", "result": 8.44, "unit": "%"}, {"measurement": "viability, T/C", "setting": "second compound 0.316 µM, first compound 0.3 µM", "result": 2.71, "unit": "%"}, {"measurement": "viability, T/C", "setting": "second compound 1 µM, first compound 0.000949 µM", "result": 100, "unit": "%"}, {"measurement": "viability, T/C", "setting": "second compound 1 µM, first compound 0.003 µM", "result": 126, "unit": "%"}, {"measurement": "viability, T/C", "setting": "second compound 1 µM, first compound 0.00949 µM", "result": 112, "unit": "%"}, {"measurement": "viability, T/C", "setting": "second compound 1 µM, first compound 0.03 µM", "result": 24, "unit": "%"}, {"measurement": "viability, T/C", "setting": "second compound 1 µM, first compound 0.0949 µM", "result": 7.89, "unit": "%"}, {"measurement": "viability, T/C", "setting": "second compound 1 µM, first compound 0.3 µM", "result": 3.25, "unit": "%"}, {"measurement": "viability, T/C", "setting": "second compound 3.16 µM, first compound 0.000949 µM", "result": 118, "unit": "%"}, {"measurement": "viability, T/C", "setting": "second compound 3.16 µM, first compound 0.003 µM", "result": 121, "unit": "%"}, {"measurement": "viability, T/C", "setting": "second compound 3.16 µM, first compound 0.00949 µM", "result": 112, "unit": "%"}, {"measurement": "viability, T/C", "setting": "second compound 3.16 µM, first compound 0.03 µM", "result": 18.5, "unit": "%"}, {"measurement": "viability, T/C", "setting": "second compound 3.16 µM, first compound 0.0949 µM", "result": 4.53, "unit": "%"}, {"measurement": "viability, T/C", "setting": "second compound 3.16 µM, first compound 0.3 µM", "result": 2.13, "unit": "%"}, {"measurement": "viability, T/C", "setting": "second compound 10 µM, first compound 0.000949 µM", "result": 59.6, "unit": "%"}, {"measurement": "viability, T/C", "setting": "second compound 10 µM, first compound 0.003 µM", "result": 66.7, "unit": "%"}, {"measurement": "viability, T/C", "setting": "second compound 10 µM, first compound 0.00949 µM", "result": 20.5, "unit": "%"}, {"measurement": "viability, T/C", "setting": "second compound 10 µM, first compound 0.03 µM", "result": 2.12, "unit": "%"}, {"measurement": "viability, T/C", "setting": "second compound 10 µM, first compound 0.0949 µM", "result": 0.89, "unit": "%"}, {"measurement": "viability, T/C", "setting": "second compound 10 µM, first compound 0.3 µM", "result": 0.72, "unit": "%"}]}, {"compound": "Nc1ccccc1NC(=O)c1ccc(CNC(=O)OCc2cccnc2)cc1", "note": "+ CC(CO)NC(=O)c1cc(-c2ccc(Cl)cc2)nn(-c2cnn(C)c2)c1=O", "values": [{"measurement": "IC50", "setting": "second compound 0.1 µM", "result": 3.83, "unit": "µM"}, {"measurement": "IC50", "setting": "second compound 0.316 µM", "result": 3.53, "unit": "µM"}, {"measurement": "IC50", "setting": "second compound 1 µM", "result": 2.78, "unit": "µM"}, {"measurement": "IC50", "setting": "second compound 3.16 µM", "result": 3.49, "unit": "µM"}, {"measurement": "IC50", "setting": "second compound 10 µM", "result": 2.66, "unit": "µM"}, {"measurement": "viability, T/C", "setting": "second compound 0.1 µM, first compound 0.0316 µM", "result": 86.6, "unit": "%"}, {"measurement": "viability, T/C", "setting": "second compound 0.1 µM, first compound 0.1 µM", "result": 93, "unit": "%"}, {"measurement": "viability, T/C", "setting": "second compound 0.1 µM, first compound 0.316 µM", "result": 78.1, "unit": "%"}, {"measurement": "viability, T/C", "setting": "second compound 0.1 µM, first compound 1 µM", "result": 65.4, "unit": "%"}, {"measurement": "viability, T/C", "setting": "second compound 0.1 µM, first compound 3.16 µM", "result": 65.2, "unit": "%"}, {"measurement": "viability, T/C", "setting": "second compound 0.1 µM, first compound 10 µM", "result": 13, "unit": "%"}, {"measurement": "viability, T/C", "setting": "second compound 0.316 µM, first compound 0.0316 µM", "result": 87.5, "unit": "%"}, {"measurement": "viability, T/C", "setting": "second compound 0.316 µM, first compound 0.1 µM", "result": 85.2, "unit": "%"}, {"measurement": "viability, T/C", "setting": "second compound 0.316 µM, first compound 0.316 µM", "result": 83.7, "unit": "%"}, {"measurement": "viability, T/C", "setting": "second compound 0.316 µM, first compound 1 µM", "result": 68.7, "unit": "%"}, {"measurement": "viability, T/C", "setting": "second compound 0.316 µM, first compound 3.16 µM", "result": 55.5, "unit": "%"}, {"measurement": "viability, T/C", "setting": "second compound 0.316 µM, first compound 10 µM", "result": 15.6, "unit": "%"}, {"measurement": "viability, T/C", "setting": "second compound 1 µM, first compound 0.0316 µM", "result": 88, "unit": "%"}, {"measurement": "viability, T/C", "setting": "second compound 1 µM, first compound 0.1 µM", "result": 94.3, "unit": "%"}, {"measurement": "viability, T/C", "setting": "second compound 1 µM, first compound 0.316 µM", "result": 76.1, "unit": "%"}, {"measurement": "viability, T/C", "setting": "second compound 1 µM, first compound 1 µM", "result": 65.5, "unit": "%"}, {"measurement": "viability, T/C", "setting": "second compound 1 µM, first compound 3.16 µM", "result": 50.7, "unit": "%"}, {"measurement": "viability, T/C", "setting": "second compound 1 µM, first compound 10 µM", "result": 14.2, "unit": "%"}, {"measurement": "viability, T/C", "setting": "second compound 3.16 µM, first compound 0.0316 µM", "result": 93.3, "unit": "%"}, {"measurement": "viability, T/C", "setting": "second compound 3.16 µM, first compound 0.1 µM", "result": 95.6, "unit": "%"}, {"measurement": "viability, T/C", "setting": "second compound 3.16 µM, first compound 0.316 µM", "result": 84.5, "unit": "%"}, {"measurement": "viability, T/C", "setting": "second compound 3.16 µM, first compound 1 µM", "result": 70, "unit": "%"}, {"measurement": "viability, T/C", "setting": "second compound 3.16 µM, first compound 3.16 µM", "result": 57.5, "unit": "%"}, {"measurement": "viability, T/C", "setting": "second compound 3.16 µM, first compound 10 µM", "result": 12.9, "unit": "%"}, {"measurement": "viability, T/C", "setting": "second compound 10 µM, first compound 0.0316 µM", "result": 91, "unit": "%"}, {"measurement": "viability, T/C", "setting": "second compound 10 µM, first compound 0.1 µM", "result": 101, "unit": "%"}, {"measurement": "viability, T/C", "setting": "second compound 10 µM, first compound 0.316 µM", "result": 76.2, "unit": "%"}, {"measurement": "viability, T/C", "setting": "second compound 10 µM, first compound 1 µM", "result": 67.2, "unit": "%"}, {"measurement": "viability, T/C", "setting": "second compound 10 µM, first compound 3.16 µM", "result": 50.3, "unit": "%"}, {"measurement": "viability, T/C", "setting": "second compound 10 µM, first compound 10 µM", "result": 6.65, "unit": "%"}]}]}
